ChEMBL document CHEMBL1201862, “PubChem BioAssay data set” (2004)
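Grown in 96-well plates, cells were treated for 48 hours with each compound at five concentrations. Insufficient inhibition: endpoint recorded as highest concentration tested. GI50: concentration for 50% inhibition of growth.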 Activity calls are given as the source filed them. No stated cut-off is given here; in the data, active = GI50 up to about 1.1 µM and inactive = higher.

Experiments:
Assay in all cases: NCI anticancer screen, dose series, 48 h
IGROV-1 = test system: IGROV-1
SK-MEL-5 = test system: SK-MEL-5
CAKI-1 = test system: CAKI-1
TK-10 = test system: TK-10
SF-295 = test system: SF-295
SK-OV-3 = test system: SK-OV-3
OVCAR-4 = test system: OVCAR-4
MDA-MB-435 = test system: MDA-MB-435
Hs-578T = test system: Hs-578T
HOP-92 = test system: HOP-92
OVCAR-5 = test system: OVCAR-5
CCRF-CEM = test system: CCRF-CEM
SNB-19 = test system: SNB-19
PC-3 = test system: PC-3
RPMI-8226 = test system: RPMI-8226
A549 = test system: A549
KM12 = test system: KM12
OVCAR-3 = test system: OVCAR-3
SF-539 = test system: SF-539
SR = test system: SR

Measured: GI50

CC(=O)Nc1ccc2c(c1)/C(=N/c1ccc(C(=O)O)cc1)c1ccccc1-2
inactive: IGROV-1 46.3 µM | SK-MEL-5 25.8 µM | CAKI-1 > 100 µM | TK-10 > 100 µM | SF-295 96.4 µM | SK-OV-3 > 100 µM | OVCAR-4 41 µM | MDA-MB-435 > 100 µM | Hs-578T 92.7 µM | HOP-92 37.9 µM | OVCAR-5 > 100 µM | CCRF-CEM 26.4 µM | SNB-19 55.6 µM | PC-3 83.6 µM | RPMI-8226 36 µM | A549 > 100 µM | KM12 51.4 µM | OVCAR-3 99.8 µM

CC(C)(C)c1ccc2c(c1)C(=O)c1ccccc1C2=O
inactive: IGROV-1 33 µM | SK-MEL-5 18.1 µM | CAKI-1 > 100 µM | TK-10 86.3 µM | SF-295 56.4 µM | SK-OV-3 > 100 µM | OVCAR-4 33.6 µM | SF-539 > 100 µM | MDA-MB-435 35.9 µM | Hs-578T 90.2 µM | HOP-92 15.5 µM | OVCAR-5 82.6 µM | CCRF-CEM 57.1 µM | SNB-19 > 100 µM | PC-3 37.7 µM | RPMI-8226 31.3 µM | A549 38.6 µM | KM12 36 µM | OVCAR-3 > 100 µM

O=C(c1ccc(Cl)cc1)N1N=C(c2ccc(Cl)cc2)CC1(O)c1cc(F)c(Cl)cc1Cl (stereo not drawn)
inactive: IGROV-1 17.9 µM | SK-MEL-5 68.2 µM | CAKI-1 13.8 µM | TK-10 52.7 µM | SF-295 20.6 µM | SK-OV-3 62.4 µM | OVCAR-4 12.8 µM | SF-539 69.3 µM | MDA-MB-435 16.7 µM | Hs-578T 39 µM | HOP-92 11.6 µM | OVCAR-5 28.2 µM | CCRF-CEM 18.7 µM | SNB-19 14.6 µM | PC-3 10.4 µM | RPMI-8226 8.22 µM | A549 19.6 µM | KM12 6.97 µM | OVCAR-3 21.8 µM

CCOC(=O)c1cn2c(n1)sc1cccc(C)c12
inactive: IGROV-1 47.3 µM | SK-MEL-5 63.4 µM | CAKI-1 > 100 µM | TK-10 > 100 µM | SF-295 > 100 µM | SK-OV-3 > 100 µM | SF-539 > 100 µM | Hs-578T 21.7 µM | OVCAR-5 > 100 µM | SNB-19 > 100 µM | PC-3 > 100 µM | A549 > 100 µM | KM12 > 100 µM | OVCAR-3 > 100 µM

O=c1sc2c(s1)-c1sc(=O)sc1SS2
inactive: IGROV-1 > 96.4 µM | SK-MEL-5 > 56.5 µM | CAKI-1 > 100 µM | TK-10 > 52.6 µM | SF-295 > 100 µM | SK-OV-3 > 100 µM | OVCAR-4 > 100 µM | SF-539 41.5 µM | MDA-MB-435 > 100 µM | Hs-578T 81.7 µM | HOP-92 > 100 µM | OVCAR-5 34.1 µM | CCRF-CEM > 54.8 µM | SNB-19 > 100 µM | PC-3 > 100 µM | RPMI-8226 > 100 µM | A549 > 100 µM | KM12 > 100 µM | OVCAR-3 > 100 µM

CC[N+](C)(CC)CCC(O)(c1ccccc1)c1ccccc1
inactive: IGROV-1 > 100 µM | SK-MEL-5 > 100 µM | SR > 100 µM | TK-10 > 100 µM | SF-295 > 100 µM | SK-OV-3 > 100 µM | OVCAR-4 > 100 µM | MDA-MB-435 > 100 µM | Hs-578T > 100 µM | OVCAR-5 > 100 µM | CCRF-CEM > 100 µM | SNB-19 > 100 µM | PC-3 > 100 µM | RPMI-8226 > 100 µM | A549 > 100 µM | KM12 > 100 µM | OVCAR-3 > 100 µM

COc1ccc(/C=C2\N=C3NC(=O)C(N4CCOCC4)=C(N)N3C2=O)cc1
inactive: IGROV-1 85.5 µM | SK-MEL-5 > 100 µM | SR 29.9 µM | CAKI-1 > 100 µM | TK-10 53.7 µM | SF-295 59.7 µM | SK-OV-3 > 100 µM | OVCAR-4 31.8 µM | SF-539 > 100 µM | MDA-MB-435 > 100 µM | Hs-578T 35.7 µM | HOP-92 > 100 µM | OVCAR-5 > 100 µM | CCRF-CEM > 100 µM | SNB-19 96.8 µM | RPMI-8226 > 100 µM | A549 > 100 µM | KM12 > 100 µM

CC(=O)C1=C(C)N2C(=NC3=C(CCc4ccccc43)C2c2ccc(F)cc2)S1 (stereo not drawn)
inactive: IGROV-1 27.7 µM | SK-MEL-5 30.1 µM | SF-295 > 100 µM | SK-OV-3 > 100 µM | OVCAR-4 56.1 µM | SF-539 80.5 µM | MDA-MB-435 > 100 µM | Hs-578T 42.8 µM | HOP-92 63.1 µM | OVCAR-5 > 100 µM | CCRF-CEM 40.3 µM | SNB-19 > 100 µM | PC-3 89.7 µM | RPMI-8226 17.5 µM | A549 > 100 µM | KM12 > 100 µM | OVCAR-3 67.9 µM

COc1ccc2c(c1C)C(=O)C(O)(CC=C(C)C)O2 (stereo not drawn)
inactive: IGROV-1 > 100 µM | SK-MEL-5 > 100 µM | SR > 100 µM | CAKI-1 > 100 µM | TK-10 > 100 µM | SF-295 > 100 µM | SK-OV-3 > 100 µM | SF-539 > 100 µM | MDA-MB-435 > 100 µM | Hs-578T > 100 µM | OVCAR-5 > 100 µM | CCRF-CEM > 100 µM | SNB-19 > 100 µM | PC-3 62.8 µM | RPMI-8226 > 100 µM | A549 > 100 µM | KM12 > 100 µM | OVCAR-3 > 100 µM

Cc1c(F)c(NC(=O)CN(C)C)c2c(=O)cc(-c3ccc(NC(=O)CN(C)C)c(F)c3)oc2c1F
inactive: IGROV-1 15.7 µM | SK-MEL-5 15 µM | SR 1.5 µM | CAKI-1 10.9 µM | TK-10 7.57 µM | SF-295 15.5 µM | SK-OV-3 16.8 µM | OVCAR-4 18.9 µM | SF-539 17.3 µM | MDA-MB-435 12.6 µM | Hs-578T 26.9 µM | OVCAR-5 22.8 µM | CCRF-CEM 21.5 µM | SNB-19 16 µM | PC-3 16 µM | RPMI-8226 16.8 µM | A549 18.6 µM | KM12 13.4 µM

Cc1ccc(-n2c(Cn3nnc(-c4cccnc4)n3)nn(C3OC(COC(=O)c4ccccc4)C(OC(=O)c4ccccc4)C3OC(=O)c3ccccc3)c2=S)cc1 (stereo not drawn)
inactive: IGROV-1 > 100 µM | SK-MEL-5 > 100 µM | CAKI-1 > 100 µM | TK-10 > 100 µM | SF-295 > 100 µM | SK-OV-3 > 100 µM | OVCAR-4 > 100 µM | SF-539 > 100 µM | MDA-MB-435 > 100 µM | Hs-578T > 100 µM | OVCAR-5 > 100 µM | CCRF-CEM > 100 µM | SNB-19 32.3 µM | PC-3 > 100 µM | RPMI-8226 > 100 µM | A549 > 100 µM | KM12 > 100 µM | OVCAR-3 > 100 µM

COc1cc(Nc2nnc3n2S(=O)(=O)c2cc(C)c(Cl)cc2S3)cc(OC)c1
inactive: IGROV-1 1.87 µM | SK-MEL-5 9.29 µM | CAKI-1 8.55 µM | TK-10 31.4 µM | SF-295 21.5 µM | SK-OV-3 14.2 µM | OVCAR-4 4.3 µM | SF-539 2.12 µM | MDA-MB-435 4.28 µM | Hs-578T 14.2 µM | HOP-92 5.26 µM | OVCAR-5 62.2 µM | CCRF-CEM 4.29 µM | SNB-19 13.3 µM | PC-3 8.83 µM | RPMI-8226 2.87 µM | A549 6.62 µM | KM12 23.4 µM | OVCAR-3 5.19 µM

N#CC1=C(N)Nc2nc3ccccc3n2C1c1ccccc1 (stereo not drawn)
inactive: IGROV-1 51.5 µM | SK-MEL-5 37.6 µM | SR 83.6 µM | CAKI-1 46.8 µM | SF-295 27.7 µM | SK-OV-3 83.4 µM | SF-539 > 100 µM | MDA-MB-435 45.6 µM | Hs-578T 24.7 µM | OVCAR-5 > 100 µM | CCRF-CEM 6.44 µM | SNB-19 > 100 µM | PC-3 46.1 µM | RPMI-8226 6.41 µM | A549 42 µM | KM12 53.7 µM | OVCAR-3 30.5 µM

O=C(O)C(F)(OC(F)(F)C(F)(F)C(F)(F)F)C(F)(F)F (stereo not drawn)
inactive: IGROV-1 > 100 µM | SK-MEL-5 > 100 µM | CAKI-1 > 100 µM | TK-10 > 100 µM | SF-295 > 100 µM | SK-OV-3 > 100 µM | OVCAR-4 > 100 µM | SF-539 > 100 µM | MDA-MB-435 > 100 µM | Hs-578T > 100 µM | HOP-92 > 100 µM | OVCAR-5 > 100 µM | SNB-19 > 100 µM | PC-3 > 100 µM | RPMI-8226 > 100 µM | A549 > 100 µM | KM12 > 100 µM | OVCAR-3 > 100 µM

CCCCCCCCCCCCOP(=O)(O)OP(=O)(O)OCC1OC(n2ccc(N)nc2=O)CC1O (stereo not drawn)
inactive: IGROV-1 > 100 µM | SK-MEL-5 > 100 µM | CAKI-1 > 100 µM | TK-10 > 100 µM | SF-295 > 100 µM | SK-OV-3 > 100 µM | OVCAR-4 > 100 µM | SF-539 > 100 µM | MDA-MB-435 > 100 µM | Hs-578T > 100 µM | HOP-92 > 100 µM | OVCAR-5 > 100 µM | CCRF-CEM > 100 µM | SNB-19 > 100 µM | PC-3 > 100 µM | RPMI-8226 > 100 µM | A549 > 100 µM | KM12 > 100 µM | OVCAR-3 > 100 µM
